The source of these data is the Kinase Knowledgebase extract (Sharma et al. 2016).

Each structure is given as a SMILES string.

Sequence of MAPK14 (human) (Q16539 whole entry, looked up): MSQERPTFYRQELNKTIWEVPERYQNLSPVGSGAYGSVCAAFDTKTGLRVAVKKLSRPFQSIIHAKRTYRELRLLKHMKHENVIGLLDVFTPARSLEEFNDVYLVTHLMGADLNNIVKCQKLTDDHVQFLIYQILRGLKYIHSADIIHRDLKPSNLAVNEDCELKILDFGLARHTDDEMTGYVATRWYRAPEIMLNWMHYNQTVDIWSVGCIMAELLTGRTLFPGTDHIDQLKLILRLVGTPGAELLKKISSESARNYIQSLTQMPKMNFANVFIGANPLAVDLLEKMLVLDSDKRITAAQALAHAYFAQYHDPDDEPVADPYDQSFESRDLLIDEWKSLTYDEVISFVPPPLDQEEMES

The experiment has as its target MAPK14 (human) (UniProt Q16539). The experiment can be described thus: Inhibition of MAPK14 Kinase Activity.
`O=c1[nH]c2c(-c3ccccc3F)ncnc2n1-c1c(F)cccc1F`: the concentration for half-maximal inhibition (IC50) turned out to be 7.8 µM.

Molecule `Cc1ccccc1-c1ncnc2c1[nH]c(=O)n2-c1c(F)cccc1F` gave an IC50 of 0.5 µM. To `Cc1ccccc1-c1ncnc2c1[nH]c(=O)n2-c1ccc(F)cc1F` belongs 1.6 µM; to `O=c1[nH]c2c(-c3ccccc3Cl)ncnc2n1-c1c(F)cccc1F`, 0.9 µM; to `O=c1[nH]c2c(-c3ccccc3)ncnc2n1-c1c(F)cccc1F`, 17.5 µM.

Molecule `Cc1cccc(C)c1-n1c(=O)[nH]c2c(-c3ccccc3Cl)ncnc21` showed a concentration for half-maximal inhibition (IC50) of 7.8 µM. Under `O=c1[nH]c2c(-c3ccccc3Cl)ncnc2n1-c1ccc(F)cc1F` stands 2.7 µM; under `COc1ccc(-n2c(=O)[nH]c3c(-c4ccccc4C)ncnc32)c(OC)c1`, 5.2 µM; under `Cc1ccccc1-c1ncnc2c1[nH]c(=O)n2-c1c(C)cccc1C`, 18.1 µM. To `Cc1ccccc1-c1ncnc2c1[nH]c(=S)n2-c1c(C)cccc1C` belongs 100 µM.
